Test results published in ChEMBL document CHEMBL1134185, “Synthesis and anticonvulsant activity of novel and potent 1-aryl-7,8-methylenedioxy-1,2,3,5-tetrahydro-4H-2,3-benzodiazepin-4-ones” (2001).

Columns and labels:
Mus musculus [1] = test: Effective dose required for anticonvulsant activity against MES-induced Tonic seizure in Swiss mice 45 minutes after ip administration of the compound; format: functional; conditions: 0.75 h
[2] = Anticonvulsant activity against audiogenic Clonic seizures in DBA/2 mice, administered ip 30 minutes before auditory stimulation.; format: functional; conditions: Mus musculus
Mus musculus [3] = test: Effective dose required for anticonvulsant activity against Clonic phase of seizure in DBA/2 mice 45 minutes after ip administration of the compound; format: functional; conditions: 0.75 h
Mus musculus [4] = test: Effective dose required for anticonvulsant activity against Clonic phase of seizure in DBA/2 mice 15 minutes after ip administration of the compound; format: functional; conditions: 0.25 h
Mus musculus [5] = species: Mus musculus; test: Ratio of TD50 to ED50, expressed as protective index; format: functional
Mus musculus [6] = test: Effective dose required for anticonvulsant activity against PTZ-induced Clonic seizure in Swiss mice 45 minutes after ip administration of the compound; conditions: 0.75 h
Mus musculus [7] = test: Effective dose required for anticonvulsant activity against Clonic phase of seizure in DBA/2 mice 30 minutes after ip administration of the compound; format: functional; conditions: 0.5 h
Mus musculus [8] = test: Effective dose required for anticonvulsant activity by ip administration against clonic phase of audiogenic seizures in DBA/2 mice after pretreatment with aniracetam+ 2,3-benzodiazepine (p<0.01); format: functional
[9] = Anticonvulsant activity against audiogenic tonic seizures in DBA/2 mice, administered ip 30 minutes before auditory stimulation; format: functional; conditions: Mus musculus
Mus musculus [10] = species: Mus musculus; test: Percent reduction of KA-evoked current with the patch clamp technique in cerebellar granule neurons grown in primary culture at a dose level of 100 uM was evaluated; format: functional
Mus musculus [11] = test: Effective dose required for anticonvulsant activity by ip administration against tonic phase of audiogenic seizures in DBA/2 mice after pretreatment with aniracetam+ 2,3-benzodiazepine (p<0.01); format: functional
Mus musculus [12] = test: Effective dose required for anticonvulsant activity against Clonic phase of seizure in DBA/2 mice 60 minutes after ip administration of the compound; format: functional; conditions: 1 h
Mus musculus [13] = test: Effective dose required for anticonvulsant activity against Clonic phase of seizure in DBA/2 mice 120 minutes after ip administration of the compound; format: functional; conditions: 2 h
Mus musculus [14] = test: Effective dose required for anticonvulsant activity against KA-induced seizure was evaluated in Swiss mice on sc administration at CD97 (32 mg/kg) 15 minutes after ip injection of compound.; format: functional; conditions: 0.25 h
Mus musculus [15] = test: Effective dose required for anticonvulsant activity against AMPA-induced Tonic seizure in DBA/2 mice 45 minutes after ip administration of the compound; conditions: 0.75 h
Mus musculus [16] = test: Effective dose required for anticonvulsant activity against Clonic phase of seizure in DBA/2 mice 90 minutes after ip administration of the compound; format: functional; conditions: 1.5 h
Mus musculus [17] = test: Effective dose required for anticonvulsant activity against AMPA-induced clonic seizure in Swiss mice 45 minutes after ip administration of the compound; format: functional; conditions: 0.75 h
Mus musculus [18] = species: Mus musculus; test: Dose required to produce locomotor deficit assessed by rotarod test in DBA/2 mice.; format: functional
Mus musculus [19] = test: Effective dose required for anticonvulsant activity against AMPA-induced tonic seizure in Swiss mice 45 minutes after ip administration of the compound; format: functional; conditions: 0.75 h

Work on `Nc1ccc(C2NNC(=O)Cc3cc4c(cc32)OCO4)cc1` (centres undefined) yielded an ED50 (Mus musculus [1]) of 35.7 µmol/kg, an ED50 [2] of 11.4 µmol/kg and an ED50 (Mus musculus [3]) of 18.7 µmol/kg. For the same compound, the ED50 (Mus musculus [4]) was > 50 µmol/kg, the Ratio (Mus musculus [5]) was 3.6 and the ED50 (Mus musculus [6]) was 59.7 µmol/kg. The ED50 (Mus musculus [7]) was 11.4 µmol/kg, the ED50 (Mus musculus [8]) was 52.3 µmol/kg and the ED50 [9] was 6.47 µmol/kg. For the same compound, the Reduction (Mus musculus [10]) was 38%, the ED50 (Mus musculus [11]) was 33.1 µmol/kg and the ED50 (Mus musculus [12]) was 23.4 µmol/kg. For the same compound, the ED50 (Mus musculus [13]) was 39.5 µmol/kg, the ED50 (Mus musculus [14]) was 15.9 µmol/kg and the ED50 (Mus musculus [15]) was 17.5 µmol/kg. The ED50 (Mus musculus [16]) was 37.1 µmol/kg and the ED50 (Mus musculus [17]) was 24.6 µmol/kg.
Work on `CCC(=O)NN1N=C(c2ccc(N)cc2)c2cc3c(cc2CC1=O)OCO3` yielded an ED50 [2] of 11.4 µmol/kg, a Ratio (Mus musculus [5]) of 3.6 and a TD50 (Mus musculus [18]) of 41.2 µM/kg. For the same compound, the ED50 [9] was 6.47 µmol/kg.
With `CCC(=O)NN1NC(c2ccc(N)cc2)c2cc3c(cc2CC1=O)OCO3` (centres undefined) the ED50 [2] was 24.6 µmol/kg, the Ratio (Mus musculus [5]) was 3.5 and the TD50 (Mus musculus [18]) was 86.1 µM/kg. It also gave an ED50 [9] of 18.1 µmol/kg.
In the case of `CCCC(=O)NN1N=C(c2ccc(N)cc2)c2cc3c(cc2CC1=O)OCO3`, the ED50 [2] is reported as 69.4 µmol/kg, the Ratio (Mus musculus [5]) is reported as 3.4 and the TD50 (Mus musculus [18]) is reported as 398 µM/kg. For the same compound, the ED50 [9] was 5.09 µmol/kg.
`CCCCC(=O)NN1N=C(c2ccc(N)cc2)c2cc3c(cc2CC1=O)OCO3` showed an ED50 [2] of 22.4 µmol/kg, a Ratio (Mus musculus [5]) of 4.7 and a TD50 (Mus musculus [18]) of 673 µM/kg. The ED50 [9] was 14.2 µmol/kg.
For `Nc1ccc(C2=NNC(=O)Cc3cc4c(cc32)OCO4)cc1`, the ED50 (Mus musculus [17]) was 37.6 µmol/kg and the ED50 (Mus musculus [19]) was 27 µmol/kg.
`CC(=O)NN1N=C(c2ccc(N)cc2)c2cc3c(cc2CC1=O)OCO3` gave an ED50 [2] of 15.4 µmol/kg, a Ratio (Mus musculus [5]) of 4.5 and an ED50 (Mus musculus [18]) of 99.1 µmol/kg. The ED50 [9] was 10.9 µmol/kg.
`CCCC(=O)NN1NC(c2ccc(N)cc2)c2cc3c(cc2CC1=O)OCO3` (centres undefined) gave an ED50 [2] of 38.7 µmol/kg, a Ratio (Mus musculus [5]) of 2.8 and a TD50 (Mus musculus [18]) of 108 µM/kg. It also gave an ED50 [9] of 32.6 µmol/kg.
With `CC(=O)NN1NC(c2ccc(N)cc2)c2cc3c(cc2CC1=O)OCO3` (centres undefined) the ED50 [2] was 69.4 µmol/kg, the Ratio (Mus musculus [5]) was 2.6 and the TD50 (Mus musculus [18]) was 182 µM/kg. The ED50 [9] was 49.2 µmol/kg.
`O=C1Cc2cc3c(cc2C(c2ccccc2)=NN1)OCO3` gave a Ratio (Mus musculus [5]) of 3.7.
In the case of `CC1=NN=C(c2ccc(N)cc2)c2cc3c(cc2C1)OCO3` [GYKI-52466], the Ratio (Mus musculus [5]) is reported as 2.1.
